Measured values as given in patent US6586460B1, “Heteroarotinoids containing urea or thiourea linker” (The Board of Regents for Oklahoma State University, priority 2001, dated 2003).
Where “and” joins values, the source holds several entries; their conditions need not be identical. Equal values may be shown once.

Legend:
SK-OV-3 = assay: Growth inhibition assay (SRB); type: cell-based; conditions: 3 days of treatment; for inhibition at 1 µM / inhibition at 10 µM: Homo sapiens, SK-OV-3, 72 h, read-out: Percentage of growth inhibition, SKOV−3
Source text: (§1) To illustrate the general and useful biological activity of the heteroarotinoids described in this invention, selected compounds were screened for ability to inhibit the growth of three ovarian cancerous cell lines, namely Caov, SKOV, and OVCAR cell lines, three cervical cell lines (Cervix HPV-Wt p53, Cervix HPV-Mut p53, and Cervix HPV-Mut p53), and one vulvar (Vulvar HPV-Mut p53) cell line as shown in Tables I-III. The cell lines and the technology have been previously described [See Journal of Medicinal Chemistry, 1999, Vol. 42, pages 3602-3614 in an article entitled “Synthesis, Structure-Activity Relationships, and RAR γ-Ligand Interactions of Nitrogen Heteroarotinoids” by A. Dhar, S. Liu, J. Klucik, K. D. Berlin, M. M. Madler, S. Lu, R. T. Ivey, D. Zacheis, C. W. Brown, E. C. Nelson, P. J. Birckbichler, and D. M. Benbrook], but the general technique was slightly modified. Cultures of the cancerous cells were plated in volumes of 150 μL in 96-well microtiter plates at concentrations of 2000-4000 cells/well, depending upon the cell line used. Retinoids were added the next day at 4× the concentrations in 50 μL of media resulting in 1, 2, 3, 4, 5, 7, and 10 μM final concentrations of each retinoid. Control cultures were treated with the same volume of DMSO. After 3 days of treatment, the cell density in each well was determined by fixing the cells in trichloroacetic acid followed by staining the cytoplasmic proteins with sulforhoamine B (SRB). After rinsing, the SRB was solubilized in Tris-HCl, and the optical density of each culture was determined with a MR600 microtiter plate reader. Each experiment was performed in triplicate, and the three values of each treatment were averaged. The average OD of the treated cultures was divided by that of the control cultures treated with solvent alone. To determine the percent growth inhibition, this ratio was subtracted from 1 and multiplied by 100. Tables I, II, and III contain representative examples of the inhibition of growth by the inventive heteroarotinoids of the cancerous cell lines investigated at two independent concentrations (1 and 10 μM). As standards for comparison purposes, trans-retinoic acid (t-RA), 9-cis-retinoic acid (9-c-RA), 13-cis-retinoic acid (13-c-RA), and […] (4-HPR) were added in parallel experiments along with the heteroarotinoids and with dimethyl sulfoxide (DMSO) as the solvent. For convenience, the data in Tables II and III are duplicated and ranked according to tumor type.

OVCAR-3 = assay: Growth inhibition assay (SRB); type: cell-based, human; conditions: for Percentage of growth inhibition, OVCAR−3 / inhibition at 1 µM / inhibition at 10 µM: 3 days of treatment; for inhibition at 1 µM / inhibition at 10 µM: Homo sapiens, OVCAR-3, 72 h, read-out: Percentage of growth inhibition, OVCAR−3
Source text: as §1

CAOV-3 = assay: Growth inhibition assay (SRB); type: cell-based; conditions: 3 days of treatment; for inhibition at 1 µM / inhibition at 10 µM: Homo sapiens, Caov-3, 72 h, read-out: Percentage of growth inhibition, CAOV−3
Source text: as §1

[1] = test system: SW962 vulvar carcinoma cultures; assay: Apoptosis assay, Annexin-V-Flous/propidium iodide flow cytometry; type: cell-based
Source text: Optimal chemotherapeutic agents will selectively kill tumor cells by inducing a natural form of cell death which is called “apoptosis”. Toxic agents kill both normal and tumor cells via a nonspecific process known as “necrosis”. To differentiate between apoptosis and necrosis in heteroarotinoid-treated cultures, a flow cytometric assay was employed. Treated cultures were stained with Annexin-V-Flous and propidium iodide, and the intensities of the stains are quantitated with Flow Cytometry. The Annexin-V-Flous binds to phosphatidyl serine on the exterior of apoptosing cells. This assay is specific for apoptosing cells because phosphatidyl serine is normally located on the inner membrane of the cells, a situation whereby the serine derivative cannot be bound by Annexin. However, during apoptosis, phosphatidyl serine is translocated to the outer membrane. The Flous moiety emits a signal that can be detected and quantitated by Flow Cytometry. In contrast, propidium iodide is taken up by necrotic cells that have lost membrane integrity. In this study, t-RA was used as a control for the non-apoptotic retinoids, and 4-HPR was used as a control for the apoptotic retinoids.

Row | Molecule | Percentage of growth inhibition, SKOV−3 (SK-OV-3; 1 μM, Table II) [%] | Percentage of growth inhibition, OVCAR−3 (OVCAR-3; 1 μM, Table II) [%] | Percentage of growth inhibition, CAOV−3 (CAOV-3; 1 μM, Table II) [%] | Percentage of growth inhibition, CAOV−3 (CAOV-3; 10 μM, Table III) [%] | Percentage of growth inhibition, SKOV−3 (SK-OV-3; 10 μM, Table III) [%] | Percentage of growth inhibition, OVCAR−3 (OVCAR-3; 10 μM, Table III) | other results
1 | 13-cis-retinoic acid [13-c-RA, reference compound] | 28.5 | 9.8 | – | – | – | – | –
2 | CC1(C)CC(C)(C)c2cc(NC(=O)Nc3ccc(C(=O)O)cc3)ccc2S1 [heteroarotinoid 14] | 3.58 | −6.70 | −4.00 | 6.12 | 0.43 | 5.45% | –
3 | CC1(C)CC(C)(C)c2cc(NC(=S)Nc3ccc(S(N)(=O)=O)cc3)ccc2S1 [heteroarotinoid 15] | −1.86 | 8.91 | 19.85 | −9.56 | 9.83 | 40.90% | –
4 | Cc1cc2c(cc1NC(=S)Nc1ccc([N+](=O)[O-])cc1)C(C)(C)CC(C)(C)S2 [heteroarotinoid 17] | 3.0 | 6.6 | – | – | 65.3 | 64.9% | –
5 | Cc1cc2c(cc1NC(=S)Nc1ccc(C(=O)O)cc1)C(C)(C)CC(C)(C)S2 [heteroarotinoid 18] | 10.5 | 10.1 | – | – | 8.5 | 18.7% | –
6 | Cc1cc([N+](=O)[O-])ccc1NC(=S)Nc1cc2c(cc1C)SC(C)(C)CC2(C)C [heteroarotinoid 19] | 16.3 | 9.6 | – | – | 33.3 | 33.2% | –
7 | Cc1cc2c(cc1NC(=S)Nc1ccc(S(N)(=O)=O)cc1)C(C)(C)CC(C)(C)S2 [heteroarotinoid 20] | 14.7 | 10.3 | – | – | 12.1 | 47.1% | –
8 | CC1(C)CC(C)(C)c2cccc(NC(=S)Nc3ccc([N+](=O)[O-])cc3)c2S1 [heteroarotinoid 22, [(4-Nitrophenyl)amino][(2,2,4,4-tetramethyl{3H-benzo[3,4-e]thiany-8-yl})amino]methane-1-thione] | 1.09 | 4.07 | −9.97 | – | – | 40.13% and 40.14% | –
9 | CCOC(=O)c1ccc(NC(=S)Nc2cccc3c2SC(C)(C)CC3(C)C)cc1 [heteroarotinoid 23] | −0.79 | −0.19 | 11.36 | 17.77 | 7.67 | 2.75% | –
10 | CCOC(=O)c1ccc(NC(=O)Nc2cc3c(cc2OC)C(C)(C)COC3(C)C)cc1 [heteroarotinoid 33] | 1.65 | 8.81 | 3.79 | 40.04 | 15.60 | 52.61% | –
11 | CCCCOC(=O)c1ccc(NC(=O)Nc2cc3c(cc2OC)C(C)(C)COC3(C)C)cc1 [heteroarotinoid 34] | 22.2 | 2.2 | – | – | 6.0 | 30.5% | –
12 | COc1cc2c(cc1NC(=S)Nc1ccc([N+](=O)[O-])cc1C)C(C)(C)OCC2(C)C [heteroarotinoid 35] | 10.3 | 5.6 | – | – | −14.3 | 6.1% | –
13 | CCOC(=O)c1ccc(NC(=O)Nc2c(OC)ccc3c2C(C)(C)COC3(C)C)cc1 [heteroarotinoid 38, Ethyl 4-{[N-(6-Methoxy-1,1,4,4-tetramethylisochroman-5-yl)carbamoyl]amino}benzoate] | – | – | – | – | – | – | inhibition at 1 µM (CAOV-3; 1 μM, Table II): 8.79%; inhibition at 10 µM (CAOV-3; 10 μM, Table III): -16.1%; inhibition at 1 µM (SK-OV-3; 1 μM, Table II): -2.39%; inhibition at 10 µM (SK-OV-3; 10 μM, Table III): -7.7%; inhibition at 1 µM (OVCAR-3; 1 μM, Table II): 9.48%; inhibition at 10 µM (OVCAR-3; 10 μM, Table III): 8.96%
14 | CCCCOC(=O)c1ccc(NC(=O)Nc2c(OC)ccc3c2C(C)(C)COC3(C)C)cc1 [heteroarotinoid 40] | 1.82 | 15.47 | 15.24 | 37.84 | 9.27 | 33.74% | inhibition of growth of the OVCAR cell line exceeding that of 4-HPR (OVCAR-3; 1 μM, Table II): more than 1200%; inhibition of growth of the OVCAR cell line exceeding that of 9-c-RA (OVCAR-3; 1 μM, Table II): about 120%; inhibition of growth of the OVCAR cell line exceeding that of 13-c-RA (OVCAR-3; 1 μM, Table II): about 40%; inhibition of growth of the OVCAR cell line exceeding that of t-RA (OVCAR-3; 1 μM, Table II): about 120%
15 | COc1ccc2c(c1NC(=S)Nc1ccc([N+](=O)[O-])cc1)C(C)(C)COC2(C)C [heteroarotinoid 41] | −2.72 | 7.18 | 7.58 | 61.94 | 45.45 | 81.71% | –
16 | CCOC(=O)c1ccc(NC(=O)Nc2cc(C(C)=O)cc3c2OCCC3(C)C)cc1 [heteroarotinoid 45, Ethyl 4-{[N-(6-Acetyl-4,4-dimethylchroman-8-yl)carbamoyl]amino}benzoate] | – | – | – | – | – | – | inhibition at 1 µM (CAOV-3; 1 μM, Table II): 7.18%; inhibition at 10 µM (CAOV-3; 10 μM, Table III): 42.8%; inhibition at 1 µM (SK-OV-3; 1 μM, Table II): -4.18%; inhibition at 10 µM (SK-OV-3; 10 μM, Table III): 20%; inhibition at 1 µM (OVCAR-3; 1 μM, Table II): 9.2%; inhibition at 10 µM (OVCAR-3; 10 μM, Table III): 47.2%
17 | CC(=O)c1cc(NC(=S)Nc2ccc([N+](=O)[O-])cc2)c2c(c1)C(C)(C)CCO2 [heteroarotinoid 46] | −1.53 | 8.57 | 3.85 | −5.35 | 0.25 | 43.15% | –
18 | trans-retinoic acid [t-RA, reference compound] | 8.8 | 6.0 | – | – | 6.0 | −3.0% and 3.0% | Percentage of induction of apoptosis in SW962 vulvar carcinoma cultures ([1]; Days 0): 3%; Percentage of induction of apoptosis in SW962 vulvar carcinoma cultures ([1]; Days 1): 2.53%; Percentage of induction of apoptosis in SW962 vulvar carcinoma cultures ([1]; Days 3): 1.25%; Percentage of induction of apoptosis in SW962 vulvar carcinoma cultures ([1]; Days 4): 4.5%; Percentage of induction of apoptosis in SW962 vulvar carcinoma cultures ([1]; Days 7): 3.51%
